Test results: patent US7312330B2, “Bicycloheteroarylamine compounds as ion channel ligands and uses thereof” (Renovis, Inc., priority 2003, dated 2007)
Each block holds one molecule with its values, some of them ahead of it.

Molecular target: hVR1 (Homo sapiens, UniProt Q8NER1)
Test: Calcium imaging assay (Fura2) of VR1 antagonists, proton stimulation
Type: cell-based
Details: HEK 293 cells expressing hVR1; for % Inhibition @ 1 μM: calcium ion influx induced by proton stimulation (pH 5.7); for IC50: calcium ion influx induced by proton stimulation
From the text: VR1 protein is a heat-gated cation channel that exchanges about 10 calcium ions for every sodium ion resulting in neuronal membrane depolarization and elevated intracellular calcium ion levels. Therefore the functional activity of compounds at the VR1 receptor may be determined by measuring changes in intracellular calcium levels in 293 cells expressing capsaicin-insensitive VR1 receptor variants. A dual wavelength ratiometric dye, Fura2, was used as an indicator of relative levels of calcium ions in a 96 well format using a bench top scanning fluorometer with integrated fluidics and temperature control (Flex Station, Molecular Devices).
A dual wavelength ratiometric dye, Fura2, was used as an indicator of relative levels of [Ca2+] in a 96 well format using a bench top scanning fluorometer with integrated fluidics and temperature control (Flex Station, Molecular Devices).
HEK 293 cells expressing hVR1 were grown on PDL coated 96-well black-walled plates, in the presence of a DMEM medium containing 5% Penstrep, 5% Glutamax, 200 ug/mL Hygromycin, 5 μg/mL Blasticide and 10% heat inactivated FBS. Prior to assay, the cells were loaded with 5 μg/mL Fura2 in normal saline solution at 37° C. for 40 minutes. Cells were then washed with normal saline to remove the dye.
The assay consists of two stages; a pre-treatment phase followed by a treatment phase. In the pretreatment phase, 50 μl of a compound solution was added to the cells. Immediately following, 50 μl of the test compound in the presence of agonist (a saline solution plus 10 mM citric acid bufferd to pH 5.7 with HCl) was added. Fura2 was excited at […] to indicate relative calcium concentration. Changes in wavelength measurements were made throughout the course of the experiment in 4 second intervals over a period of 3 minutes. The fluorescence ratio from the excitations at […] was recorded for analysis. Responses were measured as peak fluorescence ratio after compound-agonist addition minus baseline fluorescence ratio prior to treatment and were calculated for each concentration tested using the SoftMaxPro software. Data was expressed as percentage inhibition calculated as follows: […]
A dose response curve was then determined, from which the ID50 of each compound was calculated.

hVR1, sequence (Q8NER1 whole entry): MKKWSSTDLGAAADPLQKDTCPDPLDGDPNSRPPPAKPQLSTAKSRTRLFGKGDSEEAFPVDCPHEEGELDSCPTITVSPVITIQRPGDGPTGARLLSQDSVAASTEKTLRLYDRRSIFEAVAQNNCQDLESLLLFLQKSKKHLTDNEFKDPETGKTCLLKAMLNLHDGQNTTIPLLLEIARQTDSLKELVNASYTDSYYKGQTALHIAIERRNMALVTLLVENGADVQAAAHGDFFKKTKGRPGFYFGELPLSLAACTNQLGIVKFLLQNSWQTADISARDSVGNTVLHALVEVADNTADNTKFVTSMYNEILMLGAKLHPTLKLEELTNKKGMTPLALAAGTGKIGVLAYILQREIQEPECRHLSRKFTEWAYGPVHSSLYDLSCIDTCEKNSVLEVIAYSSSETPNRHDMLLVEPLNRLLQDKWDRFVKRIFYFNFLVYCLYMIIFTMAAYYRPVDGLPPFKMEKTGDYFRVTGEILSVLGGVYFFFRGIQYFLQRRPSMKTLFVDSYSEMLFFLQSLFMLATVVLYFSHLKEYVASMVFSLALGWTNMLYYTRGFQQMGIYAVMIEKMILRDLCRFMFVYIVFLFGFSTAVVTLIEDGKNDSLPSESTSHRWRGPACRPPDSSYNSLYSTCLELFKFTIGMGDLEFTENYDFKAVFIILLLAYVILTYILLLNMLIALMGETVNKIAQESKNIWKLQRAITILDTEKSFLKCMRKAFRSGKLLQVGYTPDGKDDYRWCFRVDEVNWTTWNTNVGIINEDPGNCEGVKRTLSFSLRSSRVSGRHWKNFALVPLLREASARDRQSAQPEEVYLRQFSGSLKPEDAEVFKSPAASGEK

IC50: 0.101 to 0.5 µM
Structure (SMILES): Fc1cccnc1N1CCc2c(ncnc2Nc2ccc(C(F)(F)F)cc2)C1 [Example 11, [7-(3-Fluoro-pyridin-2-yl)-5,6,7,8-tetrahydro-pyrido[3,4-d]pyrimidin-4-yl]-(4-trifluoromethyl-phenyl)-amine]
% Inhibition @ 1 μM: ++++ (compound exhibited 76% or greater inhibition of calcium ion influx induced by proton stimulation)

IC50: 0.101 to 0.5 µM
Structure (SMILES): FC(F)Oc1ccc(Nc2ncnc3c2CCN(c2ncccc2Cl)C3)cc1 [Example 15, 7-(3-Chloropyridin-2-yl)-N-(4-(difluoromethoxy)phenyl)-5,6,7,8-tetrahydropyrido[3,4-d]pyrimidin-4-amine]
% Inhibition @ 1 μM: +++ (compound exhibited 51-75% inhibition of calcium ion influx induced by proton stimulation)

IC50: > 1 µM
Structure (SMILES): CC(C)S(=O)(=O)c1cccnc1N1CCc2c(ncnc2Nc2ccc(C(F)(F)F)cc2)C1 [Example 16, N-(4-(Trifluoromethyl)phenyl)-5,6,7,8-tetrahydro-7-(3-(isopropylsulfonyl)pyridin-2-yl)pyrido[3,4-d]pyrimidin-4-amine]

IC50: > 1 µM
Structure (SMILES): Clc1cccnc1N1CCc2c(ncnc2Nc2ccccc2)C1 [Example 18, 7-(3-Chloropyridin-2-yl)-N-(phenyl)-5,6,7,8-tetrahydropyrido[3,4-d]pyrimidin-4-amine]
% Inhibition @ 1 μM: + (compound exhibited 0-25% inhibition of calcium ion influx induced by proton stimulation)

IC50: > 1 µM
Structure (SMILES): Fc1ccc(Nc2ncnc3c2CCN(c2ncccc2Cl)C3)cc1 [Example 19, 7-(3-Chloropyridin-2-yl)-N-(4-fluorophenyl)-5,6,7,8-tetrahydropyrido[3,4-d]pyrimidin-4-amine]
% Inhibition @ 1 μM: + (compound exhibited 0-25% inhibition of calcium ion influx induced by proton stimulation)

IC50: 0.101 to 0.5 µM
Structure (SMILES): CSc1nc2c(c(Nc3ccc(C(F)(F)F)cc3)n1)CCN(c1ncccc1Cl)C2 [Example 24, [7-(3-Chloro-pyridin-2-yl)-2-methylsulfanyl-5,6,7,8-tetrahydro-pyrido[3,4-d]pyrimidin-4-yl]-(4-trifluoromethyl-phenyl)-amine]

IC50: 0.101 to 0.5 µM
Structure (SMILES): COc1nc2c(c(Nc3ccc(C(F)(F)F)cc3)n1)CCN(c1ncccc1Cl)C2 [Example 27, 7-(3-Chloropyridin-2-yl)-N-(4-(trifluoromethyl)phenyl)-5,6,7,8-tetrahydro-2-methoxypyrido[3,4-d]pyrimidin-4-amine]

IC50: > 1 µM
Structure (SMILES): FC(F)(F)c1ccc(Nc2ncnc3c2CCN(c2ccccc2)C3)cc1 [Example 44, 7-(Phenyl)-N-(4-(trifluoromethyl)phenyl)-5,6,7,8-tetrahydropyrido[3,4-d]pyrimidin-4-amine]
% Inhibition @ 1 μM: + (compound exhibited 0-25% inhibition of calcium ion influx induced by proton stimulation)

IC50: 0.501 to 1 µM
Structure (SMILES): Cc1ccc(N2CCc3c(ncnc3Nc3ccc(C(F)(F)F)cc3)C2)cc1 [Example 47, 7-(p-Tolyl)-N-(4-(trifluoromethyl)phenyl)-5,6,7,8-tetrahydropyrido[3,4-d]pyrimidin-4-amine]
% Inhibition @ 1 μM: ++ (compound exhibited 26-50% inhibition of calcium ion influx induced by proton stimulation)

Second part, the molecule before the results:

Structure (SMILES): CC(C)(C)c1ccc(Nc2ncnc3c2CCN(c2ncccc2C(F)(F)F)C3)cc1.Cl [Example 4, N-(4-tert-Butylphenyl)-7-(3-(trifluoromethyl)pyridin-2-yl)-5,6,7,8-tetrahydropyrido[3,4-d]pyrimidin-4-amine hydrochloride]
% Inhibition @ 1 μM: ++++ (compound exhibited 76% or greater inhibition of calcium ion influx induced by proton stimulation)
IC50: < 0.1 µM

Structure (SMILES): COCc1nc2c(c(Nc3ccc(C(C)(C)C)cc3)n1)CCN(c1ncccc1C(F)(F)F)C2.Cl [Example 6, (4-tert-Butyl-phenyl)-[2-methoxymethyl-7-(3-trifluoromethyl-pyridin-2-yl)-5,6,7,8-tetrahydro-pyrido[3,4-d]pyrimidin-4-yl]-amine hydrochloride]
% Inhibition @ 1 μM: ++++ (compound exhibited 76% or greater inhibition of calcium ion influx induced by proton stimulation)
IC50: < 0.1 µM

Structure (SMILES): CC(C)(C)c1ccc(Nc2nc(CN3CCOCC3)nc3c2CCN(c2ncccc2Cl)C3)cc1 [Example 13, (4-tert-Butyl-phenyl)-[7-(3-chloro-pyridin-2-yl)-2-morpholin-4-ylmethyl-5,6,7,8-tetrahydro-pyrido[3,4-d]pyrimidin-4-yl]-amine]
% Inhibition @ 1 μM: ++ (compound exhibited 26-50% inhibition of calcium ion influx induced by proton stimulation)

Structure (SMILES): CS(=O)(=O)c1cccnc1N1CCc2c(ncnc2Nc2ccc(OC(F)F)cc2)C1 [Example 14, N-(4-(Difluoromethoxy)phenyl)-5,6,7,8-tetrahydro-7-(3-(methylsulfonyl)pyridin-2-yl)pyrido[3,4-d]pyrimidin-4-amine]
% Inhibition @ 1 μM: + (compound exhibited 0-25% inhibition of calcium ion influx induced by proton stimulation)

Structure (SMILES): Nc1nc2c(c(Nc3ccc(C(F)(F)F)cc3)n1)CCN(c1ncccc1Cl)C2 [Example 17, 7-(3-Chloro-pyridin-2-yl)-N^4-(4-trifluoromethyl-phenyl)-5,6,7,8-tetrahydro-pyrido[3,4-d]pyrimidine-2,4-diamine]
% Inhibition @ 1 μM: ++++ (compound exhibited 76% or greater inhibition of calcium ion influx induced by proton stimulation)

Structure (SMILES): CS(=O)(=O)c1cccnc1N1CCc2c(ncnc2Nc2ccc(C(F)(F)F)nc2)C1 [Example 21]
% Inhibition @ 1 μM: +++ (compound exhibited 51-75% inhibition of calcium ion influx induced by proton stimulation)
IC50: 0.101 to 0.5 µM

Structure (SMILES): Cc1cccc(N2CCc3c(ncnc3Nc3ccc4c(c3)OCCO4)C2)c1 [Example 36, (2,3-Dihydro-benzo[1,4]dioxin-6-yl)-(7-m-tolyl-5,6,7,8-tetrahydro-pyrido[3,4-d]pyrimidin-4-yl)-amine]
% Inhibition @ 1 μM: ++ (compound exhibited 26-50% inhibition of calcium ion influx induced by proton stimulation)

Structure (SMILES): c1ccc(CN2CCc3c(ncnc3Nc3cnc4ccccc4c3)C2)cc1 [Example 38, 7-Benzyl-5,6,7,8-tetrahydro-N-(quinolin-3-yl)pyrido[3,4-d]pyrimidin-4-amine]
IC50: 0.101 to 0.5 µM

Structure (SMILES): Clc1ccc(CCNc2ncnc3c2CCN(c2ncccc2Cl)C3)cc1 [Example 40, N-(4-Chlorophenethyl)-7-(3-chloropyridin-2-yl)-5,6,7,8-tetrahydropyrido[3,4-d]pyrimidin-4-amine]
% Inhibition @ 1 μM: +++ (compound exhibited 51-75% inhibition of calcium ion influx induced by proton stimulation)
IC50: > 1 µM

Structure (SMILES): Clc1ccc(CNc2ncnc3c2CCN(c2ncccc2Cl)C3)cc1 [Example 41, N-(4-Chlorobenzyl)-7-(3-chloropyridin-2-yl)-5,6,7,8-tetrahydropyrido[3,4-d]pyrimidin-4-amine]
% Inhibition @ 1 μM: ++ (compound exhibited 26-50% inhibition of calcium ion influx induced by proton stimulation)
IC50: 0.101 to 0.5 µM

Structure (SMILES): Clc1ccc(Nc2ncnc3c2CCN(c2ncccc2Cl)C3)cc1Cl [Example 42, N-(3,4-Dichlorophenyl)-7-(3-chloropyridin-2-yl)-5,6,7,8-tetrahydropyrido[3,4-d]pyrimidin-4-amine]
% Inhibition @ 1 μM: ++ (compound exhibited 26-50% inhibition of calcium ion influx induced by proton stimulation)
